Test results taken from EPA's ToxValDB 9.5 (doi:10.2903/j.efsa.2008.152r).

How the values were obtained:
Colinus virginianus = details: acute, oral, mortality
Aphidius rhopalosiphi = assay: LR50; higher = less toxic; details: not reported; mortality
Apis mellifera = details: acute, mortality
Daphnia magna = details: chronic/long-term; duration: 21 days; reproduction
Pimephales promelas = details: chronic/long-term; duration: 28 days; growth
Canidae = details: chronic; duration: 1 years; oral; Dog Other; clinical chemistry
Bibionidae = details: chronic/long-term; duration: 28 days

NC(Cc1ncn[nH]1)C(=O)O (configuration not stated) [1,2,4-Triazole-3-alanine]
LC50 (Colinus virginianus; diet): > 5000 mg/kg

FC(F)C(F)(F)OCC(Cn1cncn1)c1ccc(Cl)cc1Cl (configuration not stated) [Tetraconazole]
LR50 (Aphidius rhopalosiphi): 125 g/ha
LC50 (Tagia sp.; acute, duration: 14 days, mortality): 71 mg/kg
NOEC (Tagia sp.; chronic/long-term, duration: 4 weeks): ≤ 8.2 mg/kg
LD50 (Apis mellifera; dermal): 63 µg/piece
LD50 (Apis mellifera; oral, unspecified): > 130 µg/piece
LD50 (Colinus virginianus): 132 mg/kg-day
NOEC (Anas platyrhynchos; reproductive): 1.6 mg/kg-day
LC50 (Anas platyrhynchos; short-term, oral, feed, mortality): 55.5 mg/kg-day
NOEC (Daphnia magna): 0.19 mg/L
NOEC (Pimephales promelas): 0.3 mg/L
NOAEL (Canidae): 2.95 mg/kg-day
LD50 (Rattus norvegicus; acute, mortality): 1030 mg/kg-day
NOAEL (Rattus norvegicus; chronic, duration: 2 years, oral, diet, organ weight): 0.4 mg/kg-day
NOAEL (Rattus norvegicus; reproduction developmental, body weight): 5 mg/kg-day
NOAEL (Rattus norvegicus; reproduction developmental, reproduction): 3.6 mg/kg-day
NOEC (Bibionidae): 4.45 mg/L
